Assay: Plasma concentration of intact GIP after subcutaneous GIP injection
Assay type: in vivo, human

CC[C@H](C)[C@H](NC(=O)[C@H](CO)NC(=O)[C@H](Cc1ccc(O)cc1)NC(=O)[C@H](CC(=O)O)NC(=O)[C@H](CO)NC(=O)[C@@H](NC(=O)[C@H](Cc1ccccc1)NC(=O)[C@@H](NC(=O)CNC(=O)[C@H](CCC(=O)O)NC(=O)[C@H](C)NC(=O)[C@@H](N)Cc1ccc(O)cc1)[C@@H](C)O)[C@@H](C)CC)C(=O)N[C@@H](C)C(=O)N[C@@H](CCSC)C(=O)N[C@@H](CC(=O)O)C(=O)N[C@@H](CCCCN)C(=O)N[C@H](C(=O)N[C@@H](Cc1c[nH]cn1)C(=O)N[C@@H](CCC(N)=O)C(=O)N[C@@H](CCC(N)=O)C(=O)N[C@@H](CC(=O)O)C(=O)N[C@@H](Cc1ccccc1)C(=O)N[C@H](C(=O)N[C@@H](CC(N)=O)C(=O)N[C@@H](Cc1c[nH]c2ccccc12)C(=O)N[C@@H](CC(C)C)C(=O)N[C@@H](CC(C)C)C(=O)N[C@@H](C)C(=O)N[C@@H](CCC(N)=O)C(=O)N[C@@H](CCCCN)C(=O)NCC(=O)N[C@@H](CCCCN)C(=O)N[C@@H](CCCCN)C(=O)N[C@@H](CC(N)=O)C(=O)N[C@@H](CC(=O)O)C(=O)N[C@@H](Cc1c[nH]c2ccccc12)C(=O)N[C@@H](CCCCN)C(=O)N[C@@H](Cc1c[nH]cn1)C(=O)N[C@@H](CC(N)=O)C(=O)N[C@H](C(=O)N[C@H](C(=O)N[C@@H](CCC(N)=O)C(=O)O)[C@@H](C)O)[C@@H](C)CC)C(C)C)[C@@H](C)CC [GIP, Human GIP(1-42)]
Time until plasma intact GIP returned to basal level (fasting men with T2D, n = 10, 200 µg GIP subcutaneous bolus): about 150 minutes
Tmax (male, human, plasma, sc, 200 ug): 30 min
Cmax (male, human, plasma, sc, 200 ug, SEM): 0.055 ± 0.0058 nM
